In a melting point compilation (Tetko et al.; mined from patent text by program, amines drawn as free bases though some values may be those of a salt):

melting point	Compound
229 to 231 °C	Cc1ccc(-c2ccc3c(c2)C=C(C(=O)Nc2ccc(CN(C)C4CCOCC4)cc2)CCS3(=O)=O)s1
128 to 129 °C	Cc1ccc(COC(=O)NC(CO)Cc2ccc(O)cc2)cc1 (stereo not given)
162 to 163 °C	CC(C)CCCC(C)(C)NC(=O)CN1C(=O)c2ccccc2C1=O
147 to 150 °C	Cc1ccccc1C1(CNC(=O)Nc2c(C(C)C)cccc2C(C)C)CCCC1
146 to 149 °C	CCOC(=O)c1ccc(OC(F)F)cc1S(=O)(=O)NC(=O)Nc1nc(OC)cc(OC)n1
198 to 200 °C	O=C(NO)c1ccc(C(=O)NOCCC23CC4CC(CC(C4)C2)C3)cc1
165 to 166 °C	Cc1ccc(-c2c(Cl)nc(-c3ccccc3)nc2Cl)cc1
> 200 °C	CN1CCN(S(=O)(=O)NC(Cc2ccccc2)C(=O)O)CC1 (stereo not given)
134 to 136 °C	NC(=O)CNC(=O)c1ccc(-c2cccc3cc(Cc4cccc(C(F)(F)F)c4)sc23)cc1
54 to 55 °C	C1=C(c2ccccc2)SCCS1
140 to 142 °C	CCOC(=O)C1=C(NC(=O)Nc2cc(C(=O)OC(C)C)c(Cl)cc2Cl)CCC1
197 to 199 °C	CN(CCO)Cc1ccc(-c2ccc3c(Nc4ccc(Sc5nccn5C)c(Cl)c4)c(C#N)cnc3c2)nc1
64 to 66 °C	CCOC(=O)C(=NOC)C1=CSCCO1
145 to 146 °C	Cc1oc(-c2ccccc2)nc1COc1ccc2oc(/C=C/CO)cc2c1
138 to 140 °C	COC(=O)C[C@H]1COS(=O)(=O)N1C(=O)OCC1c2ccccc2-c2ccccc21
113 to 114 °C	COCCNC(=O)Cc1ccc2ccn(C3CCN(CCc4ccc(F)cc4)CC3)c2c1
130 to 131 °C	CC(=NC1CCCCC1)Nc1ccccc1C
124 to 126 °C	CCCc1nn(-c2ccc(C(F)(F)F)cn2)cc1CCCOc1ccc(CCC(=O)O)c(C)c1
> 250 °C	N#Cc1cc(C2=Nc3cc(O)c(-c4ccccc4F)cc3NC(=O)C2)ccn1
88 °C	Nc1cc2c(cc1CCN1CCN(c3cccc(C(F)(F)F)c3)CC1)OCO2
118 to 119 °C	CCCCc1cc2cc(C(=O)NOCc3ccccc3)ccn2c1C(=O)c1ccc(OCCCN(CCCC)CCCC)cc1
109 to 110 °C	CCCCc1nn(-c2ccc(C(F)(F)F)cn2)cc1CCCOc1nn(CC)cc1CC(=O)O
148 to 149 °C	CCCn1nc(C2CC2)c(C(=O)OCC)c1Cc1ccc(-c2ccccc2-c2nnn[nH]2)cc1
104 to 105 °C	COc1ccc(C(OCC2(COS(=O)(=O)c3ccc(C)cc3)OC(n3ccc(=O)[nH]c3=O)C(O)C2O)(c2ccccc2)c2ccc(OC)cc2)cc1 (stereo not given)
151 °C	COc1c(C)c(C(=O)c2ccc([N+](=O)[O-])cc2)n2ccccc12
157 to 160 °C	CCC(CC)N(C[C@@H]1CCC[C@H](CN(C(=O)Nc2ccc(N(C)C)cc2)C(CC)CC)C1)C(=O)Nc1ccc(N(C)C)cc1
112 to 115 °C	COCCOC(=O)COc1cc(F)ccc1C(=O)NCc1cccc([N+](=O)[O-])c1
170 to 171 °C	Cc1cc(OCCc2nc(-c3ccccc3)oc2C)cc(C)c1CN(O)C(N)=O
98 to 100 °C	CCS(=O)(=O)NC(=O)CCCCC1CCSS1 (stereo not given)

More lines, now with the values behind:

Compound	melting point
CC(C)C[C@H](NC(=O)OCc1ccccc1)C(=O)N[C@@H](Cc1ccccc1)C(=O)CSCCN(C)C	67 to 69 °C
Cc1ccc(S(=O)(=O)OCC(C)C2CCC3C4CC=C5CC(O)CC(O)C5(C)C4CCC23C)cc1 (stereo not given)	91 to 99 °C
COc1cc(C(=O)NC=NC(=O)ON(c2ccc(C)c(NC(=O)c3ccc(C(=O)c4ccccc4)cc3)c2)C(C)(C)C)cc(OC)c1OC	96 °C
[N-]=[N+]=NCc1ccc(Sc2ccc(Cl)cc2)c(Cl)c1	39 to 41 °C
O=C1CCC(N2Cc3c(OCc4ccc5occc5c4)cccc3C2=O)C(=O)N1 (stereo not given)	168 to 170 °C
CCOC(=O)Nn1c(C)ccc1C(=O)c1ccccc1Cl	82 to 84 °C
CC(C)CC(NC(=O)C(NC(=O)OCc1ccccc1)C(C)C)C(=O)NC(CCCCNC(=O)OCc1ccccc1)C(=O)Oc1cccc2ccccc12 (stereo not given)	171 to 174 °C
O=C1CN(c2nccc(Oc3ccc(NC(=O)c4cc(F)cc(N5CCOCC5)c4)c4ccccc34)n2)CCN1	108 to 110 °C
CC(C)(C)c1ccc(C(=O)NN=Cc2c(O)ccc3ccccc23)cc1	259 to 261 °C
CCN1CCc2ccc(Nc3ncc(Cl)c(NCC(C)(C)NS(C)(=O)=O)n3)cc2CC1	118 to 121 °C
O=C1CCC(O)(c2nc3ccccc3s2)CC1	134 °C
CS(=O)(=O)N(Cc1ccncc1)c1ccc(F)cc1F	101 to 105 °C
COc1cc(OCc2ccccn2)ccc1/C=C/c1cc(/C=C/c2cccc3[nH]ccc23)n[nH]1	108 to 113 °C
COc1cc(S(N)(=O)=O)cc(C(=O)NC2CCN(CC3CCCCC3)C2)c1OC (stereo not given)	167 °C
CCN(CC)c1ccc(/C=C/c2c(F)cccc2F)cc1	70 to 71 °C
NC(=O)c1cc(F)cc(-c2ccc(F)c3cc(Cc4cccc(C(F)(F)F)c4)sc23)c1	161 to 162 °C
Cc1onc(-c2ccccc2)c1-c1[nH]c2ccccc2c1C(=O)C(=O)N(C)C	258 to 260 °C
CCc1cnc2n1N=C(c1ccc(N)cc1)c1cc3c(cc1C2)OCO3	258 to 260 °C
O=C1CC(Cl)C(=O)N1C1CCCCC1 (stereo not given)	63 to 64 °C
Cc1cc(Cl)c(N2C(=O)Cc3cc(C)ccc32)c(Cl)c1	153 to 154 °C
COC(=O)[C@H](Cc1ccc(O[Si](C)(C)C(C)(C)C)cc1)NC(=O)Nc1n[nH]c(=S)s1	139 to 142 °C
O=C(CN1CC=CCC1)NC(=O)N1CCN2C(=O)OC(c3ccccc3)(c3ccccc3)C2C1 (stereo not given)	156 to 157 °C

Compound	melting point
C[C@]1(CN2CCN(C(=O)OCc3ccc(C(F)(F)F)cc3)CC2)Cn2cc([N+](=O)[O-])nc2O1	140 to 142 °C
CCCCOC(=O)c1ccccc1OC(=O)N(C)SN(C)C(=O)ON=C(C)SC	68 to 74 °C
COC(=O)CCc1c(CCO)ccc2c1CCC(NS(=O)(=O)c1ccc(Cl)cc1)C2 (stereo not given)	132 °C
COc1cc(N(Cc2cccc(SC(F)(F)F)c2)C[C@@H](O)C(F)(F)F)cc(OC)c1OC	88.9 to 89.1 °C
CCCCCCCCCCc1ccc(C(=O)CCCCC(=O)O)cc1	84 to 85 °C
CCOC(=O)C1=C(C)NC(C)=C(C(=O)OCC)C1c1cc2cnccc2s1	204 to 205 °C
CC(C(=O)N(C)C)n1c(-c2ccc(Cl)cc2)nc2cccnc21 (stereo not given)	124 to 126 °C
CN1C(=O)C[C@@H](c2ccccc2)[C@H]1CO	93 to 95 °C
Cc1cc(-c2nc(-c3ccncc3)nn2C)cc(C)n1	176 to 178 °C
Cn1ncc2nn(-c3cccc(C(F)(F)F)c3)c(=O)c(Cl)c21	156 to 158 °C
CCc1oc2ccccc2c1C(=O)N(C)Cc1ccc2c(Br)c(O)ccc2c1	176 to 178 °C
CCCCC[C@H]1CC[C@H](/C=C/COc2ccc(C=O)cc2)CC1	54 to 55 °C
Cc1nc2c3c(ccn2c1C)C(=O)CC(c1ccccc1)N3 (stereo not given)	138 to 140 °C
O=C(C[N+](=O)[O-])c1ncn(Cc2ccccc2)c1[N+](=O)[O-]	105 to 107 °C
Cc1c2c(cnc3ccccc32)nn1-c1ccccc1	128 to 130 °C
CCc1c(-c2ccc(OC)cc2)c2cc(C(C)=O)c3cccc1n32	73 to 75 °C
CCOC(=O)Cc1cc(C)c(C(=O)c2ccccc2)n1C	78 to 80 °C
COc1ccc2c3c(oc2c1)CC(CC1CCN(Cc2ccccc2)CC1)C3=O (stereo not given)	137 to 138 °C
Cc1nnc2n1-c1sc(CC(=O)N3CCOCC3)cc1C(c1ccccc1Cl)=NC2	143 to 144 °C
CC(Cl)c1ccccc1S(N)(=O)=O (stereo not given)	121 to 122 °C
CCOC(=O)c1ccc(-c2coc(-c3ccc(C(F)(F)F)cc3)n2)cc1	168 to 170 °C
CCOC(=O)c1ccc(-c2cccc(O)c2)c(C(C)(C)C)c1	118 to 120 °C

Compound	melting point
CCCCN(Cc1ccc(-c2ccccc2C(=N)NO)cc1)c1ncccc1C(=O)OCC	181 to 182 °C
CCCOc1ccnc2[nH]ccc12	189 to 191 °C
CCCS(=O)(=O)Nc1ccc(Sc2c(O)c3c(=O)n(-c4ccccc4)c4ccccc4c3oc2=O)cc1	249 to 251 °C
O=c1[nH]c(-c2ccccc2)c(-c2ccccc2S(=O)(=O)NCCCBr)o1	232 to 235 °C
CCOC(=O)c1c(OCC)nsc1NC(=O)N(C)C	164 to 165 °C
CC(=O)Nc1nc(-c2ccc(O)cc2O)cs1	264 °C
COC(=O)C1CCN2C(=O)C(=O)c3cc(Cl)cc1c32 (stereo not given)	132 to 133 °C
O[C@@H](CNCCOc1ccc2oc(-c3ccon3)cc2c1)c1cccc(Cl)c1	112 to 120 °C
COC(=O)N1CC[C@@H]2[C@H]1CCC[C@@]2(O)C#Cc1cccc(C)c1	110 to 112 °C
CNC(=O)c1cc(Br)cc(C)c1N	133 to 135 °C
CCc1nc2ccc(Cl)nc2n1Cc1ccc2oc(-c3ccccc3-c3nnn[nH]3)c(Br)c2c1	162 to 165 °C
CCCn1nc2c(N)nc3c(c2c1CC(C)(C)S(C)(=O)=O)CCCC3	209 to 211 °C
CC(=O)Oc1c(C)c(CCl)nc2ccccc12	108 to 109 °C
Cc1nn(CCCl)c(-c2ccc(F)cc2)c1-c1ccc2c(c1)NC(=O)CO2	216 °C
O=C(O)CN1C(=O)[C@@H](N[C@@H](CCC2CCCCC2)C(=O)O)COc2ccccc21	202 to 205 °C
O=c1c2c(nc3ccc(Br)cn13)C(=Cc1ccc(Cl)cc1Cl)CC2	164 to 166 °C
CNc1nc(-c2cccc(-c3cncc(S(C)=O)c3)c2)c2cc(OC)c(OC)cc2n1 (stereo not given)	208 to 210 °C
Nc1cccc(N2C(=O)c3ccc(N)cc3C2=O)c1	228 to 231 °C
FC(F)(F)c1ccnc(Oc2ccc(CCNc3ncnc4nccnc34)cc2)c1	147 to 149 °C
COc1ccc2c(c1)CCC1C2CCC2(C)C(=O)CC(C(C)C)C12 (stereo not given)	104 to 108 °C
CCOC(=O)c1c(CCCn2ccnc2)nc2cc(OC)c(OC)cc2c1-c1ccc(OC)c(OC)c1	164 to 165 °C
CCCc1nc2c(N)nc3ccccc3c2n1CCCON=C(C)C	147 to 150 °C
